Key:
[1] = test system: tubulin isolated from calf brain; assay: Tubulin polymerization assay; format: biochemical
[2] = test system: M5076 murine fibrosarcoma; assay: In vivo antitumor testing, M5076 murine sarcoma; design: species or system mice; details: optimal schedule
Method: The murine fibrosarcoma M5076 was also employed.
The human tumors were maintained in Balb/c nu/nu nude mice. M5076 was maintained in C57BL/6 mice. Tumors were propagated as subcutaneous transplants in the appropriate mouse strain using tumor fragments obtained from donor mice.
(§1) All tumor implants for efficacy testing were subcutaneous (sc).
(§2) The MTD was frequently equivalent to OD. When death occurs, the day of death was recorded.
(§3) And, Log cell kill=T−C÷(3.32×TVDT)

[3] = test system: A2780 human ovarian carcinoma; assay: In vivo antitumor testing, A2780 in nude mice
Method: as §1, §2, §3

[4] = test system: A2780Tax human ovarian carcinoma; details: Expt. 12, IV paclitaxel at its MTD
Description: (§4) The following human tumors were used: A2780 ovarian, A2780Tax ovarian (established from cells obtained from Dr. Antonio Fojo, Medicine Branch, NCI, Bethesda, Md.), HCT116/VM46 colon, Pat-7 ovarian (established from a tumor biopsy provided by Dr. Thomas Hamilton, Fox Chase Cancer Center, Philadelphia, Pa.) from a patient who had developed resistance to TAXOL®). The murine fibrosarcoma M5076 was also employed.
The following tumors were passaged in the indicated host strain of mouse: murine M5076 fibrosarcoma (M5076) in C57Bl/6 mice; human A2780 and Pat-7 ovarian carcinomas, HCT116, HCT116/VM46 and LS174T colon carcinoma, Pat-21 breast carcinoma in nude mice. Tumor passage occurred biweekly for murine tumors and approximately every two to eight weeks for the various human tumor lines. With regard to efficacy testing, M5076 tumors were implanted in (C57Bl/6×DBA/2)F1 hybrid mice, and human tumors were implanted in nude mice. All tumor implants for efficacy testing were subcutaneous (sc). […]
(§5) Antitumor activity was evaluated at the maximum tolerated dose (MTD) which is defined as the dose level immediately […] which excessive toxicity (i.e. more than one death) occurred. […] When death occurs, the day of death was recorded. […]
(§6) To estimate tumor cell kill, the tumor volume doubling time was first calculated with the formula: […]

HCT-116 = assay: In vitro cytotoxicity (MTS assay), HCT-116; format: cell-based; details: Homo sapiens; HCT-116, 72 hour incubation
Method: HCT116 human carcinoma cell lines and HCT116/VM46 cells, a MDR variant, were maintained in McCoy's 5A medium (GIBCO) and 10% heat inactivated fetal bovine serum (GIBCO). A2780 human ovarian carcinoma cells and A2780Tax cells obtained from Dr. Antonio Fojo (NCI, Bethesda, Md.) were maintained in IMEM (GIBCO) and 10% fetal bovine serum (GIBCO).
(§7) The in vitro cytotoxicity was assessed in tumor cells by a tetrazolium-based colorimetric assay which takes advantage of the metabolic conversion of MTS (3-(4,5-dimethylthiazol-2-yl)-5-(3-carboxymethoxyphenyl)-2-(4-sulphenyl)-2H-tetrazolium, inner salt) to a reduced form that absorbs light at 492 nm. Cells were seeded 24 hr prior to drug addition. Following a 72 hour incubation at 37° C. with serially diluted compound, MTS, in combination with the electron coupling agent phenazine methosulfate, was added to the cells. The incubation was continued for 3 hours, then the absorbancy of the medium at 492 nm was measured with a spectrophotometer to obtain the number of surviving cells relative to control populations. The results are expressed as median cytotoxic concentrations (IC50 values).

[5] = test system: LS174T human colon carcinoma; assay: In vivo antitumor testing, LS174T xenograft; design: species or system nude mice; details: Expt. R578, iv paclitaxel 36 mg/kg/inj every 2 days for 5 doses
Method: as §1, §2, §3

[6] = test system: Pat-7 human ovarian carcinoma; assay: In vivo antitumor testing, Pat-7 in nude mice
Method: as §1, §2, §3
This tumor model was established from a tumor biopsy of an ovarian cancer patient (Pat-7), who was initially responsive to TAXOL® treatment but ultimately developed resistance to it following nine courses of monotherapy with TAXOL®. Prior to treatment with TAXOL®, Pat-7 also received numerous other chemotherapeutic agents including carboplatin, cytoxan, VP-16, ifosfamide and altretamine. Tumor biopsy was taken following development of TAXOL® resistance.

[7] = test system: HCT116/VM46 human colon carcinoma; assay: in vivo
Description: as §4
(§8) The following tumors were passaged in the indicated host strain of mouse: murine M5076 fibrosarcoma (M5076) in C57Bl/6 mice; human A2780 and Pat-7 ovarian carcinomas, HCT116, HCT116/VM46 and LS174T colon carcinoma, Pat-21 breast carcinoma in nude mice. Tumor passage occurred biweekly for murine tumors and approximately every two to eight weeks for the various human tumor lines. With regard to efficacy testing, M5076 tumors were implanted in (C57Bl/6×DBA/2)F1 hybrid mice, and human tumors were implanted in nude mice. All tumor implants for efficacy testing were subcutaneous (sc).
(§9) The required number of animals needed to detect a meaningful response were pooled at the start of the experiment and each was given a subcutaneous implant of a tumor fragment (·50 mg) with a 13-gauge trocar. For treatment of early-stage tumors, the animals were again pooled before distribution to the various treatment and control groups. For treatment of animals with advanced-stage disease, tumors were allowed to grow to the predetermined size window (tumors outside the range were excluded) and animals were evenly distributed to various treatment and control groups. Treatment of each animal was based on individual body weight. Treated animals were checked daily for treatment related toxicity/mortality. Each group of animals was weighed before the initiation of treatment (Wt1) and then again following the last treatment dose (Wt2). The difference in body weight (Wt2−Wt1) provides a measure of treatment-related toxicity.
(§10) Tumor weights (mg) were estimated from the formula: Tumor weight=(length×width^2)÷2
Antitumor activity was evaluated at the maximum tolerated dose (MTD) which is defined as the dose level immediately […] which excessive toxicity (i.e. more than one death) occurred. […] When death occurs, the day of death was recorded.
Tumor response end-point was expressed in terms of tumor growth delay (T-C value), defined as the difference in time (days) required for the treated tumors (T) to reach a predetermined target size compared to those of the control group (C).
To estimate tumor cell kill, the tumor volume doubling time was first calculated with the formula:
TVDT=Median time (days) for control tumors to reach target size−Median time (days) for control tumors to reach half the target size
HCT116/VM46 is an MDR-resistant colon carcinoma developed from the sensitive HCT116 parent line.

Pat-21 breast carcinoma = test system: Pat-21 breast carcinoma
Description: as §8, §9, §10, §5, §6

[8] = test system: Pat-7 human ovarian carcinoma; assay: In vivo antitumor testing, Pat-7 in nude rats; details: Expt. 15, nude rats, paclitaxel at optimal dose
Method: as §2, §3

[9] = test system: A2780 human ovarian carcinoma; assay: In vivo antitumor testing, A2780 in nude rats; details: nude rats, IV paclitaxel
Method: as §2, §3
A2780 grown in nude rats was also utilized.

MIP = assay: In vitro cytotoxicity (MTS assay), MIP; format: cell-based; details: MIP (MDR colon tumor line), 72 hour incubation; read-out: IC50
Method: as §7

Q: With `C/C(=C\c1csc(C)n1)[C@@H]1C[C@@H]2O[C@@H]2CCC[C@H](C)[C@H](O)[C@@H](C)C(=O)C(C)(C)[C@@H](O)CC(=O)O1` [Epothilone A] as the molecule, how does the “Ratio of Polymerization Potency of Analog/Paclitaxel” value [1] read?
A: 0.4

Q: For `C/C(=C\c1csc(C)n1)[C@@H]1C[C@@H]2O[C@]2(C)CCC[C@H](C)[C@H](O)[C@@H](C)C(=O)C(C)(C)[C@@H](O)CC(=O)O1` [Epothilone B], which “Ratio of Polymerization Potency of Analog/Paclitaxel” value [1] is on record?
A: 0.3

Q: `CC(=O)O[C@H]1C(=O)[C@@]2(C)[C@H]([C@H](OC(=O)c3ccccc3)[C@]3(O)C[C@H](OC(=O)[C@H](O)[C@@H](NC(=O)c4ccccc4)c4ccccc4)C(C)=C1C3(C)C)[C@]1(OC(C)=O)CO[C@@H]1C[C@@H]2O` [Paclitaxel, reference compound] was tested. Which “Paclitaxel LCK” value ([2]; Expt. 159, IV paclitaxel) did it give?
A: 0.1

Q: What about the “Paclitaxel LCK” value ([2]; Expt. 162, IV paclitaxel) of the same molecule?
A: 0.5

Q: What about the “Paclitaxel LCK” value ([3]; Expt. 89, IV paclitaxel at optimal dose) of the same molecule?
A: 2

Q: What about the “Paclitaxel LCK” value ([3]; Expt. 92, IV paclitaxel at optimal dose) of the same molecule?
A: 3.5

Q: What about the “Paclitaxel LCK” value [4] of the same molecule?
A: 0.8

Q: And the IC50 (HCT-116)?
A: 2.1 nM

Q: And the “Paclitaxel LCK” value [5]?
A: 2.0

Q: And the “Paclitaxel LCK” value ([6]; Expt. 8, IV paclitaxel at optimal dose (24-36 mg/kg/inj) and schedule)?
A: 1.3

Q: And the “Paclitaxel (IV) LCK” value ([6]; Expt. 9, IV paclitaxel at optimal dose (24-36 mg/kg) and schedule)?
A: 1.2

Q: And the “Paclitaxel LCK” value ([6]; Expt. R403, IV paclitaxel at optimal dose (24-36 mg/kg/inj) and schedule)?
A: 0.6

Q: And the “Paclitaxel LCK” value ([7]; Expt. 32, IV paclitaxel at its MTD)?
A: 0.4

Q: And the “Paclitaxel LCK” value ([7]; Expt. 33, IV paclitaxel at its MTD)?
A: 0.7

Q: And the “median LCK of 12 consecutive studies” value ([7]; paclitaxel at its MTD)?
A: 0.35 LCK

Q: And the “Paclitaxel LCK” value (Pat-21 breast carcinoma; Expt. R667, paclitaxel at MTD of 36 mg/kg/inj)?
A: 0.3

Q: And the MTD (Pat-21 breast carcinoma; paclitaxel, two courses of 3 doses every 4 days)?
A: 36 mg/kg/inj

Q: And the “Paclitaxel LCK” value [8]?
A: 2.2

Q: What about the Paclitaxel cures/total ([8]; listed as PACLITAXEL) of the same molecule?
A: (0/6)

Q: And the Paclitaxel cures/total ([8]; listed as paclitaxel)?
A: no cures

Q: And the cures [9]?
A: 5 of 7

Q: What about the IC50 (MIP) of the same molecule?
A: > 112 nM

From US7312237B2, “Combination of epothilone analogs and chemotherapeutic agents for the treatment of prolilferative diseases” (Bristol-Myers Squibb Co., priority 2001, dated 2007)
